Experimental data published in PubChem BioAssay AID789 (SRMLSC, 2007).
Calls of active or inactive are those of the source. The rule behind the calls is not given here.

How the values were obtained:
[1] = growth inhibition of apl2Δ yeast, dose response, selectivity assay for post-Golgi transport modulator project, S. cerevisiae, secondary screen, background strain comparison (AID 789); conditions: S. cerevisiae background (wild-type parent) strain growth inhibition
[2] = test system: S. cerevisiae apl2Δ mutant growth inhibition; experiment: as above

In the case of `Cc1nc(NC(=O)c2ccccc2)sc1-c1csc(Nc2ccc(F)cc2)n1`, the IC50 [1] is reported as > 10 µM and the IC50 [2] is reported as > 10 µM (inactive).
In the case of `CCN(CC)CCCN(Cc1cc2cc3c(cc2[nH]c1=O)OCCO3)C(=O)Nc1ccc(F)cc1`, the IC50 [1] is reported as > 10 µM and the IC50 [2] is reported as > 10 µM (inactive).
With `CCc1cc(=O)oc2cc(C)c(CN3CCCC(C)C3)c(O)c12` (stereo not drawn) the IC50 [1] was > 10 µM and the IC50 [2] was > 10 µM (inactive).
In the case of `c1ccc(COc2ccc(CN3CCN(c4ccccn4)CC3)cc2)cc1`, the IC50 [1] is reported as > 10 µM and the IC50 [2] is reported as > 10 µM (inactive).
In the case of `O=C1OCC2=C1C(c1ccc(F)cc1)Sc1ccccc1N2` (stereo not drawn), the IC50 [1] is reported as > 10 µM and the IC50 [2] is reported as > 10 µM (inactive).
In the case of `Cc1ccc(CSc2nc3ccccc3cc2C=O)cc1`, the IC50 [1] is reported as 2.1 µM and the IC50 [2] is reported as 7.24 µM (inactive).
With `Cc1cccc(CS(=O)(=O)Cc2ccc(C(=O)NCCCN3CCCC3)o2)c1` the IC50 [1] was > 10 µM and the IC50 [2] was > 10 µM (inactive).
For `O=C(Nc1nnc(-c2ccc3c(c2)CCCC3)o1)c1ccccc1Cl`, the IC50 [1] was 10.7 µM and the IC50 [2] was > 10 µM (inactive).
For `CCOC(=O)COc1ccccc1C1Nc2ccccc2C(=O)N1c1cccc(Cl)c1` (stereo not drawn), the IC50 [1] was > 10 µM and the IC50 [2] was > 10 µM (inactive).
With `Cc1cc(N2C(=O)C3CCCN3C2c2sccc2C)no1` (stereo not drawn) the IC50 [1] was > 10 µM and the IC50 [2] was > 10 µM (inactive).
For `CS(=O)(=O)N1CCC(C(=O)NCCN2CCN(Cc3ccccc3)CC2)CC1`, the IC50 [1] was > 10 µM and the IC50 [2] was > 10 µM (inactive).
In the case of `O=C(Nc1nnc(-c2ccc3c(c2)CCCC3)o1)c1ccc(Cl)cc1Cl`, the IC50 [1] is reported as 3.46 µM and the IC50 [2] is reported as > 10 µM (inactive).
For `Cc1cc(C)n2nc(C(=O)NCc3ccccc3)cc2n1`, the IC50 [1] was > 10 µM and the IC50 [2] was > 10 µM (inactive).
`C=CCc1ccc(OCC(O)CN2CCC(Cc3ccccc3)CC2)c(OC)c1` (stereo not drawn) showed an IC50 [1] of 19.1 µM and an IC50 [2] of 12.5 µM.
For `CCC(C)(C)n1nnnc1C(c1cc2cc3c(cc2[nH]c1=O)OCO3)N1CCN(C)CC1` (stereo not drawn), the IC50 [1] was > 10 µM and the IC50 [2] was > 10 µM (inactive).
With `CCOC(=O)c1cc2c(ccn2C)n1CC(=O)N1CCN(c2ccccc2OC)CC1` the IC50 [1] was > 10 µM and the IC50 [2] was > 10 µM (inactive).
For `COc1ccc(NC(=O)N(C2CCCCC2)C(C)c2cccnc2)c(OC)c1` (stereo not drawn), the IC50 [1] was 16.7 µM and the IC50 [2] was 12.6 µM.
In the case of `CCCc1cc(NCCCCO)n2c(nc3ccccc32)c1C#N`, the IC50 [1] is reported as > 10 µM and the IC50 [2] is reported as > 10 µM (inactive).
With `CCc1n[nH]c2c1/C(=N\O)CC(C)(C)C2` the IC50 [1] was > 10 µM and the IC50 [2] was > 10 µM (inactive).
In the case of `C=C(C)COc1ccc(-c2ncncc2Oc2ccc(OC)cc2)c(O)c1`, the IC50 [1] is reported as > 10 µM and the IC50 [2] is reported as > 10 µM (inactive).
In the case of `CCOC(=O)C(NC(C)=O)(Nc1ccc(S(=O)(=O)Nc2onc(C)c2C)cc1)C(F)(F)F` (stereo not drawn), the IC50 [1] is reported as > 10 µM and the IC50 [2] is reported as > 10 µM (inactive).
In the case of `O=C(Cn1ncc2c3ccccc3n(Cc3ccccc3F)c2c1=O)N1CCC2(CC1)OCCO2`, the IC50 [1] is reported as > 10 µM and the IC50 [2] is reported as > 10 µM (inactive).
In the case of `CCOCCCNC(=O)C1CCN(C(=O)N(C)C)CC1`, the IC50 [1] is reported as > 10 µM and the IC50 [2] is reported as > 10 µM (inactive).
In the case of `Cc1ccc(S(=O)(=O)NC(CC(C)C)C(=O)Oc2ccc3c4c(c(=O)oc3c2)CCC4)cc1` (stereo not drawn), the IC50 [1] is reported as > 10 µM and the IC50 [2] is reported as > 10 µM (inactive).
In the case of `COC(=O)c1ccc(CSc2nnc(NC(C)C)s2)cc1`, the IC50 [1] is reported as > 10 µM and the IC50 [2] is reported as > 10 µM (inactive).
In the case of `COc1ccc(N2CCN(C(=O)CCNS(=O)(=O)c3ccc(Br)s3)CC2)cc1`, the IC50 [1] is reported as > 10 µM and the IC50 [2] is reported as > 10 µM (inactive).
For `O=C(CCC(=O)OCC(=O)c1ccc(F)cc1)NC1CCCCC1`, the IC50 [1] was > 10 µM and the IC50 [2] was > 10 µM (inactive).
With `Cc1ccc(-c2csc3nnc(SCC(=O)Nc4cccc(C)n4)n23)cc1` the IC50 [1] was > 10 µM and the IC50 [2] was > 10 µM (inactive).
For `COc1ccc(Cl)cc1NC(=O)C(C)N1CCN(C/C=C/c2ccccc2)CC1` (stereo not drawn), the IC50 [1] was 15 µM and the IC50 [2] was 20.4 µM (inactive).
With `Cc1sc(NC(=O)c2ccco2)c(C(c2cccnc2)N2CCC(C)CC2)c1C` (stereo not drawn) the IC50 [1] was 5.77 µM and the IC50 [2] was 13.9 µM (inactive).
For `O=c1c2c3c(sc2ncn1/N=C/c1ccc([N+](=O)[O-])o1)CCCC3`, the IC50 [1] was 1.59 µM and the IC50 [2] was 2.1 µM (inactive).
With `COC(=O)c1ccc(NC(=O)c2cn(-c3ccccc3)nc2-c2ccncc2)cc1` the IC50 [1] was > 10 µM and the IC50 [2] was > 10 µM (inactive).
With `Cc1nn(Cc2cccc(C(=O)NC(C)c3ccc(C(C)(C)C)cc3)c2)c(C)c1[N+](=O)[O-]` (stereo not drawn) the IC50 [1] was > 10 µM and the IC50 [2] was > 10 µM (inactive).
With `O=C(c1ccc(Cl)cc1Cl)N1CCC(c2nc3c(nnn3Cc3ccco3)c(=O)[nH]2)CC1` the IC50 [1] was > 10 µM and the IC50 [2] was > 10 µM (inactive).
In the case of `Cc1cccc(N2CCN(CC(=O)Nc3nccs3)CC2)c1C`, the IC50 [1] is reported as > 10 µM and the IC50 [2] is reported as > 10 µM (inactive).
For `O=S(=O)(NCC(c1cccnc1)N1CCN(c2ccccc2)CC1)c1cccs1` (stereo not drawn), the IC50 [1] was > 10 µM and the IC50 [2] was > 10 µM (inactive).
With `CCOCCCNC(=O)c1cc2sc(Cl)cc2n1CC` the IC50 [1] was > 10 µM and the IC50 [2] was > 10 µM (inactive).
With `CCCn1c(SCc2cc(=O)oc3ccc4ccccc4c23)n[nH]c1=O` the IC50 [1] was > 10 µM and the IC50 [2] was > 10 µM (inactive).
For `CC(C)(C)n1nnnc1CN(Cc1cccnc1)Cc1ccccc1Cl`, the IC50 [1] was > 10 µM and the IC50 [2] was > 10 µM (inactive).
For `COc1ccc(NC(=O)c2ccc(CN3CCN(c4ccccc4)CC3)cc2)cc1`, the IC50 [1] was > 10 µM and the IC50 [2] was > 10 µM (inactive).
For `CC(C)Oc1ccc(/C(O)=C2/C(=O)C(=O)N(CCN(C)C)C2c2ccco2)cc1` (stereo not drawn), the IC50 [1] was > 10 µM and the IC50 [2] was > 10 µM (inactive).
With `CCCn1nc([N+](=O)[O-])c(C(C#N)c2nc3ccccc3s2)c(Cl)c1=O` (stereo not drawn) the IC50 [1] was 2.16 µM and the IC50 [2] was 13.7 µM (inactive).
In the case of `Cc1ccc(C)c(C(=O)NCc2ccncc2)c1`, the IC50 [1] is reported as > 10 µM and the IC50 [2] is reported as > 10 µM (inactive).
In the case of `CCn1c(SCC(=O)N2CCCc3ccccc32)nnc1-c1ccco1`, the IC50 [1] is reported as > 10 µM and the IC50 [2] is reported as > 10 µM (inactive).
For `COc1ccc2c(c1)C(C)=CC(C)(C)N2C(=O)CSc1nnc(-c2ccc(C)cc2)o1`, the IC50 [1] was > 10 µM and the IC50 [2] was > 10 µM (inactive).
In the case of `c1ccc(-c2ccc(-c3cnc4n3CCCCC4)cc2)cc1`, the IC50 [1] is reported as > 10 µM and the IC50 [2] is reported as > 10 µM (inactive).
For `Cc1cc2ncn(CC(O)COc3cccc(C(=O)O)c3)c2cc1C` (stereo not drawn), the IC50 [1] was > 10 µM and the IC50 [2] was > 10 µM (inactive).
For `CSc1ncccc1C(=O)OCC(=O)N1CCOCC1`, the IC50 [1] was > 10 µM and the IC50 [2] was > 10 µM (inactive).
In the case of `Cc1cc(C(C)(C)C)ccc1OCCN1CCCC1`, the IC50 [1] is reported as > 10 µM and the IC50 [2] is reported as > 10 µM (inactive).
In the case of `Cc1cc(OCC(F)(F)C(F)(F)C(F)(F)C(F)(F)C(F)(F)C(F)F)nc(N)n1`, the IC50 [1] is reported as > 10 µM and the IC50 [2] is reported as > 10 µM (inactive).
With `Cc1ccc(/C=N/n2cnc3sc(-c4ccccc4)cc3c2=O)o1` the IC50 [1] was > 10 µM and the IC50 [2] was > 10 µM (inactive).
In the case of `O=[N+]([O-])c1ccc(N/N=C/c2c[nH]c3ccccc23)c(S(=O)(=O)Nc2ccc(Cl)cc2)c1`, the IC50 [1] is reported as 2.5 µM and the IC50 [2] is reported as 7.17 µM (inactive).
With `O=C(OCn1ncc(Cl)c(Cl)c1=O)c1ccc(C(F)(F)F)cc1` the IC50 [1] was > 10 µM and the IC50 [2] was > 10 µM (inactive).
For `COCCNC(=O)C(c1ccc(F)cc1)N(CC1CCCO1)C(=O)CCC(=O)Nc1ccccn1` (stereo not drawn), the IC50 [1] was > 10 µM and the IC50 [2] was > 10 µM (inactive).
In the case of `CCOC(=O)c1ccc(NC(=O)c2ccc(CN3CCOCC3)cc2)cc1`, the IC50 [1] is reported as > 10 µM and the IC50 [2] is reported as > 10 µM (inactive).
For `O=C(c1ccco1)N1CCN=C1SCc1cccnc1`, the IC50 [1] was > 10 µM and the IC50 [2] was > 10 µM (inactive).
For `Cn1c2ccc(Cl)cc2c2nc3ccccc3nc21`, the IC50 [1] was > 10 µM and the IC50 [2] was > 10 µM (inactive).
In the case of `NC(=O)c1c(NC(=O)CN2C(=O)CCC2=O)sc2c1CCCCC2`, the IC50 [1] is reported as > 10 µM and the IC50 [2] is reported as > 10 µM (inactive).
For `CCN(CC)CCn1nc(C)nc1-c1ccccc1O`, the IC50 [1] was > 10 µM and the IC50 [2] was > 10 µM (inactive).
In the case of `Cc1cc(C)nc(N/N=C/C(Cl)=C/c2ccccc2)n1`, the IC50 [1] is reported as > 10 µM and the IC50 [2] is reported as > 10 µM (inactive).
In the case of `Nc1ccc(Oc2ccc3nc(-c4ccccc4)c(-c4ccccc4)nc3c2)cc1`, the IC50 [1] is reported as 1.21 µM and the IC50 [2] is reported as 2 µM (inactive).
With `Cc1ccc(S(=O)(=O)c2c(C)nn(C(C)(C)C)c2OC(=O)c2ccc(Br)o2)cc1` the IC50 [1] was > 10 µM and the IC50 [2] was > 10 µM (inactive).
With `O=C(NCC(c1cccnc1)N1CCN(c2ccccc2)CC1)C1CCCCC1` (stereo not drawn) the IC50 [1] was > 10 µM and the IC50 [2] was > 10 µM (inactive).
For `CCn1c(-c2c[nH]c3ccccc23)n[nH]c1=S`, the IC50 [1] was > 10 µM and the IC50 [2] was > 10 µM (inactive).
